# Patent US20050208582A1, “Pyrazole compounds and pharmaceutical compositions comprising the compound” (priority 2002, published 2005)
# Biological target: T1, ERK2 (Homo sapiens, UniProt P28482)
# T1 construct: purchased Upstate Biotech
# Experiment: Measurement of ERK2 inhibition (ELISA, myelin basic protein substrate)
# Type: biochemical
# Conditions: concentration at which ERK2 enzyme activity was inhibited to 50%; room temperature, 30 minutes; read-out: ERK2 inhibitory activity
# Protocol: Measurement of ERK2 Inhibition
# A plate for ELISA was coated for 1 hour with 1 μg/well myelin basic protein (available from Upstate Biotech) serving as a reaction substrate. Following washing operation with PBS-Tween, blocking with 1% BSA-PBS was conducted for 3 hours. After washing with PBS-Tween, 25 μl of a reaction solution (20 mM MOPS, 25 mM β-glycerphosphoric acid, 5 mM EGTA, 1 mM orthovanadic acid, 1 mM dithiothreitol), 5 μl of a dilution sample of compound from dilution series which was prepared using 1% DMSO-1% BSA solution, 10 μl of 0.5 μg/ml ERK2 (available from Upstate Bioech), 10 μl of 500 μM ATP were added to made up to 50 μl, and allowed to react at room temperature for 30 minutes. 100 μl of 200 mM EDTA (pH 8.0) was added to stop the reaction, which was then washed with PBS-Tween. This was then added with mouse anti-phospho-myelin basic protein antibody (available from Usptate Biotech), allowed to react for 1 hour, and washed with PBS-Tween, thereafter added with anti-mouse IgG antibody combined with horseradish peroxidase (available from ICN), allowed to react for 1 hour, and washed with PBS-Tween. Subsequently 100 μl of a TMB peroxidase substrate solution (available from KPL) was added, coloring reaction was allowed for 10 minutes, and then measurement at OD 450 nm was conducted. […]
# T1 sequence (P28482 whole entry, species assumed): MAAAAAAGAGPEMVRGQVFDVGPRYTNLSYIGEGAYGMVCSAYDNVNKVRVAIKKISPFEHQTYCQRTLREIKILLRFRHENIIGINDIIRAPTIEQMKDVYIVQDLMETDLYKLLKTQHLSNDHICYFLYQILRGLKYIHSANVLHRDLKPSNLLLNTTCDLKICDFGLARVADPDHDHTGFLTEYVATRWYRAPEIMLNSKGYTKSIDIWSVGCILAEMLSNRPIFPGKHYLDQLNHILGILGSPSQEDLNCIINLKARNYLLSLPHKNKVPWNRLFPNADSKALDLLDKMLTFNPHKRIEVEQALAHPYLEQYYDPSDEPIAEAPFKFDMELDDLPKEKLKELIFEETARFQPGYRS
row,IC50 [µM],Compound
1,22.1,"O=C(NCc1ccco1)c1cc2c(/C=C/c3cccc(F)c3)n[nH]c2cc1F [Example 103, 6-Fluoro-3-[(E)-2-(3-fluorophenyl)-vinyl]-1H-indazole-5-carboxylic Acid (furan-2-ylmethyl)-amide]"
2,0.71,"O=C(NCc1ccco1)c1ccc2[nH]nc(/C=C/c3cccc(F)c3)c2c1 [Reference example 1, 3-[(E)-2-(3-fluorophenyl)-vinyl]-1H-indazole-5-carboxylic acid (furan-2-ylmethyl)-amide, reference compound]"

# Biological target: T2, Human JNK 3 (Homo sapiens, UniProt P53779)
# T2 construct: made in house; host or cells: Escherichia coli
# Experiment: Measurement of JNK 3 inhibition (GST-JNK3, GST-c-Jun substrate, [γ-33P]ATP, SPA beads)
# Type: biochemical
# Conditions: 50% inhibitory concentration on the enzymatic activity of JNK; 3.33 μM ATP in substrate solution, 30 minutes
# Protocol: Measurement of JNK 3 Inhibition
# Human JNK 3 was expressed as a fusion protein (GST-JNK 3) with glutathione S-transferase (GST) in Escherichia coli and was purified using glutathione Sepharose 4B beads. The amino acid sequence 1-169 of c-Jun was prepared as a fusion protein (GST-c-Jun) with GST in Escherichia coli, was purified using glutathione Sepharose 4B beads and was used as a substrate. A test compound was solved in 100% dimethyl sulfoxide into 10 mM and was then further diluted with 10% aqueous dimethyl sulfoxide solution to yield a dilution series. In 96-well OPTI plate (available from ParkinElmer Life Sciences), 20 μl of diluted compound, 30 μl of substrate solution (1.2 μg GST-c-Jun, 0.2 μCi [γ-^33P]ATP, 25 mM HEPES pH=7.5, 10 mM MgAcetate, 3.33 μM ATP) and 50 μl of enzyme solution (0.04 μg GST-JNK3, 25 mM HEPES pH=7.5, 10 mM Mg Acetate) were mixed per 1-well, made up to 100 μl, and allowed to react for 30 minutes. After terminating the reaction by adding 100 μl of a reaction terminator (80 mM ATP, 50 mg/ml glutathione SPA beads (available from Amersham Pharmacia Biotech)), the reaction mixture was shaken for 30 minutes. The mixture was centrifuged at room temperature at 1000×g for 5 minutes, and the emission intensity thereof was determined on a TopCount™ illuminator (available from available from PerkinElmer Life Sciences). The activity is expressed by the 50% inhibitory concentration on the enzymatic activity of JNK, i.e., IC50 (nM).
# T2 sequence (P53779 whole entry): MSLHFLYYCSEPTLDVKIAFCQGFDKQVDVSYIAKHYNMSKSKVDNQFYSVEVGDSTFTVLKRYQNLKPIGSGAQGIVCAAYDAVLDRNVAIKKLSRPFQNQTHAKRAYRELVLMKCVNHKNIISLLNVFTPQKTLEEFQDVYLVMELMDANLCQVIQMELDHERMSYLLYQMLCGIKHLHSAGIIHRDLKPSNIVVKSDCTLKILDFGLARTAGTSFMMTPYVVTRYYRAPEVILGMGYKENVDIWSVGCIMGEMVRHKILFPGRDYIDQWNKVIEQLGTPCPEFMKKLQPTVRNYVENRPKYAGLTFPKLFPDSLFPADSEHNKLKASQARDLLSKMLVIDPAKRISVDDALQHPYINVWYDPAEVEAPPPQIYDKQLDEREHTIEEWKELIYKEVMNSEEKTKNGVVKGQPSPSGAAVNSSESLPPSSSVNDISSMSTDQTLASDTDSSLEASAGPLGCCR
row,Compound,IC50 [µM]
1,"O=C(NC1CC1)c1ccc2[nH]nc(-c3cccc(F)c3)c2n1 [Example 56, 3-(3-Fluorophenyl)-1H-pyrazolo[4,3-b]pyridine-5-carboxylic Acid Cyclopropylamide]",0.234
2,"O=C(NCc1cccnc1)c1cc2c(/C=C/c3cccc(F)c3)n[nH]c2cc1F [Example 106, 6-Fluoro-3-[(E)-2-(3-fluorophenyl)-vinyl]-1H-indazole-5-carboxylic Acid (pyridine-3-ylmethyl)-amide]",0.195
3,"O=C(Nc1cc(F)c2[nH]nc(/C=C/c3cccnc3)c2c1)c1ccco1 [Example 136, Furan-2-carboxylic Acid [7-fluoro-3-(2-pyridin-3-yl-vinyl)-1H-indazol-5-yl]-amide]",0.167
4,"O=C(NC1CC1)c1ccc2[nH]nc(/C=C/c3ccc(F)cc3)c2c1OCCO [Example 353, 3-[(E)-2-(4-Fluorophenyl)-vinyl]-4-(2-hydroxyethoxy)-1H-indazole-5-carboxylic Acid Cyclopropylamide]",0.148
5,"COc1c(-c2nc(C)n[nH]2)ccc2[nH]nc(/C=C/c3cccc(F)c3)c12 [Example 392, 3-[(E)-2-(3-Fluorophenyl)-vinyl]-4-methoxy-5-(5-methyl-2H-[1,2,4]triazol-3-yl)-1H-indazole]",0.403
6,O=C(NCc1ccco1)c1cc2c(/C=C/c3cccc(F)c3)n[nH]c2cn1 [Example 466],0.578
7,"O=C(NCc1ccco1)c1cnc2[nH]nc(-c3ccc4ccccc4c3)c2c1 [Example 472, 3-(Naphthalen-2-yl)-1H-pyrazolo[3,4-b]pyridine-5-carboxylic Acid (furan-2-ylmethyl)-amide]",0.505
8,"O=C(NC(CO)c1ccccc1)c1cc2c(-c3ccc4ccccc4c3)n[nH]c2s1 (centres unmarked) [Example 522, 3-(Naphthalen-2-yl)-1H-thieno[2,3-c]pyrazol-5-carboxylic Acid (2-hydroxy-1-phenylethyl)amide]",0.146
9,"C[C@H](NC(=O)c1ccc2[nH]nc(/C=C/c3ccc(F)cc3)c2c1OCCCO)C(N)=O [Example 786, 3-[(E)-2-(4-Fluorophenyl)-vinyl]-4-(3-hydroxypropoxy)-1H-indazole-5-carboxylic Acid [(1S)-1-carbamoyl-ethyl]-amide]",0.175
10,"CCCNC(=O)Nc1cc2c(/C=C/c3ccc(F)cc3)n[nH]c2cc1F [Example 1056, 1-{6-Fluoro-3-[(E)-2-(4-fluorophenyl)-vinyl]-1H-indazol-5-yl}-3-propyl-urea]",0.132

# Next, values leading:
row,IC50 [µM],Compound
1,0.117,"CC(C)[C@@H](CO)NC(=O)c1cc(F)c2[nH]nc(/C=C/c3cccnc3)c2c1 [Example 128, 7-Fluoro-3-[(E)-2-(pyridin-3-yl)-vinyl]-1H-indazole-5-carboxylic acid [(1S)-1-hydroxymethyl-2-methylpropyl]-amide]"
2,0.117,"O=C(NCc1ccco1)c1ccc2[nH]nc(/C=C/c3cccs3)c2c1F [Example 213, 4-Fluoro-3-[(E)-2-(thiophen-2-yl)-vinyl]-1H-indazole-5-carboxylic Acid (furan-2-ylmethyl)-amide]"
3,0.118,"O=C(Nc1ccc2[nH]nc(/C=C/c3ccc(F)cc3)c2n1)c1ccco1 [Example 495, Furan-2-carboxylic Acid {3-[(E)-2-(4-fluorophenyl)-vinyl]-1H-pyrazolo[4,3-b]pyridin-5-yl}-amide]"
4,0.063,"CNCc1nnc(-c2cc3c(/C=C/c4ccc(F)cc4)n[nH]c3cc2F)[nH]1 [Example 571, (5-{6-Fluoro-3-[(E)-2-(4-fluorophenyl)-vinyl]-1H-indazol-5-yl}-4H-[1,2,4]triazol-3-ylmethyl)-methyl-amine]"
5,0.066,"NCc1nnc(-c2cc(F)c3[nH]nc(/C=C/c4ccc(F)cc4)c3c2)[nH]1 [Example 573, C-(5-{7-Fluoro-3-[(E)-2-(4-fluorophenyl)-vinyl]-1H-indazol-5-yl}-4H-[1,2,4]triazol-3-yl)-methylamine]"
6,0.117,"Fc1ccc(/C=C/c2n[nH]c3c(F)cc(-c4ncc[nH]4)cc23)cc1 [Example 603, 7-Fluoro-3-[(E)-2-(4-fluorophenyl)-vinyl]-5-(1H-imidazol-2-yl)-1H-indazole]"
7,0.07,"NC(=O)CCOc1c(C(=O)N[C@H](CO)c2ccccc2)ccc2[nH]nc(/C=C/c3ccc(F)cc3)c12 [Example 790, 4-(2-Carbamoylethoxy)-3-[(E)-2-(4-fluorophenyl)-vinyl]-1H-indazole-5-carboxylic Acid [(1S)-2-hydroxy-1-phenyl-ethyl]-amide]"
8,0.107,"COc1c(C(=O)NCc2ncco2)ccc2[nH]nc(/C=C/c3ccc(F)cc3F)c12 [Example 992, 3-[(E)-2-(2,4-Difluorophenyl)-vinyl]-4-methoxy-1H-indazole-5-carboxylic Acid (oxazol-2-ylmethyl)amide]"
9,0.122,"COc1cc(/C=C/c2n[nH]c3cc(F)c(NC(=O)CC4CC4)cc23)ccc1F [Example 1003, 2-Cyclopropyl-N-{6-fluoro-3-[(E)-2-(4-fluoro-3-methoxyphenyl)-vinyl]-1H-indazol-5-yl}acetamide]"

# Same assay, conditions: selectivity table, compared with ERK2; read-out: JNK3 inhibitory activity
row,IC50 [µM],Compound
1,0.055,"O=C(NCc1ccco1)c1cc2c(/C=C/c3cccc(F)c3)n[nH]c2cc1F [Example 103, 6-Fluoro-3-[(E)-2-(3-fluorophenyl)-vinyl]-1H-indazole-5-carboxylic Acid (furan-2-ylmethyl)-amide]"
2,0.092,"O=C(NCc1ccco1)c1ccc2[nH]nc(/C=C/c3cccc(F)c3)c2c1 [Reference example 1, 3-[(E)-2-(3-fluorophenyl)-vinyl]-1H-indazole-5-carboxylic acid (furan-2-ylmethyl)-amide, reference compound]"
